# Species: Homo sapiens
# Test: Ester prodrugs: T1/2 in human plasma
# Type: ADME
# Settings: not given
row,SMILES,T1/2 [min]
1,CCN(CC)Cc1cccc(C(=O)OCn2c(=O)oc3ccc(Cl)cc32)c1,28

# Same assay, conditions: human, in vitro
row,SMILES,T1/2 [min]
1,C[C@H]1CC2C(C(O)CC3(C)C2CC[C@]3(O)C(=O)COC(=O)c2cccc(CN(C)CCN(C)C)c2)C2(C)C=CC(=O)C=C12 (stereo not given in full),18
2,CCN(CC)CCN(CC)Cc1cccc(C(=O)OCC(=O)[C@@]2(O)CCC3C4CCC5=CC(=O)CCC5(C)C4C(O)CC32C)c1 (stereo not given in full),8
3,CCN(CC)Cc1cccc(C(=O)OCC(=O)[C@@]2(O)CCC3C4CCC5=CC(=O)CCC5(C)C4C(O)CC32C)c1 (stereo not given in full),34
4,CN1CCN(Cc2cccc(C(=O)OCC(=O)[C@@]3(O)CCC4C5CCC6=CC(=O)CCC6(C)C5C(O)CC43C)c2)CC1 (stereo not given in full),15
5,Cc1ncc([N+](=O)[O-])n1CCOC(=O)c1cccc(CN2CCN(C)CC2)c1,0.6
6,Cc1ncc([N+](=O)[O-])n1CCOC(=O)c1ccc(CN(C)C)cc1,4.7
7,CCN(CC)Cc1ccc(C(=O)OCC(=O)[C@@]2(O)CCC3C4CCC5=CC(=O)CCC5(C)C4C(O)CC32C)cc1 (stereo not given in full),107
8,CN1CCN(Cc2cccc(C(=O)OCC(NC(=O)C(Cl)Cl)C(O)c3ccc([N+](=O)[O-])cc3)c2)CC1 (stereo not given),5
9,CC(=O)Nc1ccc(OC(=O)c2cccc(CN3CCOCC3)c2)cc1,56
10,Cc1ncc([N+](=O)[O-])n1CCOC(=O)c1cccc(CN2CCOCC2)c1,5
11,CCN(CC)Cc1cccc(C(=O)OCN2C(=O)NC(c3ccccc3)(c3ccccc3)C2=O)c1,20
12,CCN(CC)Cc1cccc(C(=O)OCn2cnc3c2c(=O)n(C)c(=O)n3C)c1,0.4
13,O=C(OCn1ncc2c(=O)[nH]cnc21)c1cccc(CN2CCOCC2)c1,8.5
14,Cc1ncc([N+](=O)[O-])n1CCOC(=O)c1ccc(CN2CCOCC2)cc1,0.4
15,Nc1nc(O)c2ncn(COCCOC(=O)c3ccc(CN4CCOCC4)cc3)c2n1,3.7
16,CN1CCN(Cc2cccc(C(=O)OCn3ncc4c(=O)[nH]cnc43)c2)CC1,0.5
17,CCN(CC)CCN(CC)Cc1cccc(C(=O)Oc2ccc(NC(C)=O)cc2)c1,15
18,CCN(CC)Cc1cccc(C(=O)OCC(NC(=O)C(Cl)Cl)C(O)c2ccc([N+](=O)[O-])cc2)c1 (stereo not given),8
19,C[C@H]1CC2C(C(O)CC3(C)C2CC[C@]3(O)C(=O)COC(=O)c2cccc(CN3CCN(C)CC3)c2)C2(C)C=CC(=O)C=C12 (stereo not given in full),29
20,CNCc1cccc(C(=O)OCC(=O)[C@@]2(O)CCC3C4CCC5=CC(=O)CCC5(C)C4C(O)CC32C)c1 (stereo not given in full),25

row,SMILES,T1/2 [min]
1,CN1CCN(Cc2ccc(C(=O)OCn3ncc4c(=O)[nH]cnc43)cc2)CC1,11
2,Cn1c(=O)c2c(ncn2COC(=O)c2cccc(CN3CCOCC3)c2)n(C)c1=O,2.8
3,CC(=O)Nc1ccc(OC(=O)c2ccc(CN(C)C)cc2)cc1,87
4,CN1CCN(Cc2cccc(C(=O)OCC(=O)[C@@]3(O)CCC4C5CCC6=CC(=O)C=CC6(C)C5C(O)CC43C)c2)CC1 (stereo not given in full),18
5,CN1CCN(Cc2ccc(C(=O)OCC(=O)[C@@]3(O)CCC4C5CCC6=CC(=O)CCC6(C)C5C(O)CC43C)cc2)CC1 (stereo not given in full),147
6,CC12CCC(=O)C=C1CCC1C2C(O)CC2(C)C1CC[C@]2(O)C(=O)COC(=O)c1cccc(CN2CCOCC2)c1 (stereo not given in full),62
7,CC12CCC(=O)C=C1CCC1C2C(O)CC2(C)C1CC[C@]2(O)C(=O)COC(=O)c1ccc(CN2CCOCC2)cc1 (stereo not given in full),92
8,CN(C)Cc1ccc(C(=O)OCn2ncc3c(=O)[nH]cnc32)cc1,9.4
9,O=C(OCn1ncc2c(=O)[nH]cnc21)c1cccc(Cn2ccnc2)c1,3.6
10,CCCNCc1cccc(C(=O)OCC(=O)[C@@]2(O)CCC3C4CCC5=CC(=O)CCC5(C)C4C(O)CC32C)c1 (stereo not given in full),38
11,CC(=O)Nc1ccc(OC(=O)c2cccc(CN3CCN(C)CC3)c2)cc1,27
12,CN1CCN(Cc2cccc(C(=O)OCn3cnc4c3c(=O)n(C)c(=O)n4C)c2)CC1,0.4
13,Cn1c(=O)c2c(ncn2COC(=O)c2cccc(Cn3ccnc3)c2)n(C)c1=O,0.9
14,CCN(CC)CCN(CC)Cc1cccc(C(=O)OCC(NC(=O)C(Cl)Cl)C(O)c2ccc([N+](=O)[O-])cc2)c1 (stereo not given),0.9
15,Cc1ncc([N+](=O)[O-])n1CCOC(=O)c1ccc(CN2CCN(C)CC2)cc1,2.4
16,CN1CCN(Cc2cccc(C(=O)OCN3C(=O)NC(c4ccccc4)(c4ccccc4)C3=O)c2)CC1,7
17,O=C(OCC(NC(=O)C(Cl)Cl)C(O)c1ccc([N+](=O)[O-])cc1)c1cccc(CN2CCOCC2)c1 (stereo not given),55
18,O=C(OCn1ncc2c(=O)[nH]cnc21)c1ccc(CN2CCOCC2)cc1,1.9
19,CC(=O)Nc1ccc(OC(=O)c2ccc(CN3CCN(C)CC3)cc2)cc1,487

# From ChEMBL document CHEMBL1124371, “A novel solution-stable, water-soluble prodrug type for drugs containing a hydroxyl or an NH-acidic group” (J Med Chem, 1989)
